“And” between values parts separate entries of the source, which are not always exact repeats. Equal entries are not always repeated. “Also recorded” adds a separate entry of the source. Where two headings read alike, the source gives them in different places.
Experiments:
HEK-293 WT cells = assay: Regulatory volume decrease (RVD) after hypotonic challenge, calcein fluorescence self-quenching; type: cell-based, human; conditions: for RVD inhibition at 10 μM (%) / inhibition at 10 µM: 10 μM inhibitor, after 30 min; for inhibition at 10 µM: Homo sapiens, HEK293, 0.5 h; for Effect on RVD at 30 μM: 30 μM inhibitor
Description: Measurements of changes in cell volume were performed using the calcein fluorescence self-quenching method. Briefly, calcein at high concentrations undergoes spontaneous self-quenching, and its fluorescence intensity decreases with increasing calcein concentration ([Capó-Aponte et al., 2005]). The variation in the fluorescence due to self-quenching indirectly reflects the volume of the cell.
HEK-293 WT and HEK-293 LRRC8-KO cells were cultured on polylysine-coated 24-well plates for 2 days. The cells were then loaded for 40 min with a solution containing 10 μM calcein-AM (Sigma–Aldrich) and washed 3 times with 1 ml of isotonic medium containing (in mM) 145 NaCl, 5 KCl, 1 MgCl2, 1 CaCl2, 10 glucose, and 10 HEPES pH 7.4 (300 mOsm.l^-1). Under this control experimental condition, basal fluorescence was measured every 90 s for 10 min using a plate reader (Ex: 460 nm, Em: 520 nm; Synergy HT, Biotek). After the baseline recording period (10 min), the medium was exchanged and replaced with iso- or hypo-osmotic bath solution adjusted to 200, 150, or 100 mOsm.l^-1. The change in fluorescence induced by replacement of the medium was then recorded over the following 50 min. The experiments were performed under control conditions and in the presence of various concentrations of inhibitors. The percent inhibition resulting from exposure of the cells to solutions containing a concentration of 10 μM for each inhibitor was calculated after maintaining the cells in hypotonic bath solution in the presence of the inhibitor for 30 min.

LRRC8/VRAC = biological target: T1, LRRC8/VRAC (Homo sapiens, UniProt Q8IWT6); assay: Patch-clamp whole-cell recording of hypotonicity-activated VRAC/LRRC8 chloride current (ICl,swell); type: cell-based; conditions: for Inhibition at 10 μM (%) of chloride conductance / inhibition at 10 µM: 10 μM inhibitor, -100 mV; for Effect on hypotonic-activated Cl- currents at 20 μM / inhibition at 20 µM: 20 μM inhibitor; for inhibition at 10 µM: read-out: Inhibition at 10 μM (%) of chloride conductance; for Hill coefficient (chloride conductance): WT HEK-293, fitted concentration-response curve at -100 mV; for IC50: read-out: IC50 (chloride conductance)
T1 construct: tested in wild-type HEK-293 cells expressing LRRC8 proteins; endogenous in cells; host or cells: wild-type HEK-293 cells
T1 sequence (Q8IWT6 1-810): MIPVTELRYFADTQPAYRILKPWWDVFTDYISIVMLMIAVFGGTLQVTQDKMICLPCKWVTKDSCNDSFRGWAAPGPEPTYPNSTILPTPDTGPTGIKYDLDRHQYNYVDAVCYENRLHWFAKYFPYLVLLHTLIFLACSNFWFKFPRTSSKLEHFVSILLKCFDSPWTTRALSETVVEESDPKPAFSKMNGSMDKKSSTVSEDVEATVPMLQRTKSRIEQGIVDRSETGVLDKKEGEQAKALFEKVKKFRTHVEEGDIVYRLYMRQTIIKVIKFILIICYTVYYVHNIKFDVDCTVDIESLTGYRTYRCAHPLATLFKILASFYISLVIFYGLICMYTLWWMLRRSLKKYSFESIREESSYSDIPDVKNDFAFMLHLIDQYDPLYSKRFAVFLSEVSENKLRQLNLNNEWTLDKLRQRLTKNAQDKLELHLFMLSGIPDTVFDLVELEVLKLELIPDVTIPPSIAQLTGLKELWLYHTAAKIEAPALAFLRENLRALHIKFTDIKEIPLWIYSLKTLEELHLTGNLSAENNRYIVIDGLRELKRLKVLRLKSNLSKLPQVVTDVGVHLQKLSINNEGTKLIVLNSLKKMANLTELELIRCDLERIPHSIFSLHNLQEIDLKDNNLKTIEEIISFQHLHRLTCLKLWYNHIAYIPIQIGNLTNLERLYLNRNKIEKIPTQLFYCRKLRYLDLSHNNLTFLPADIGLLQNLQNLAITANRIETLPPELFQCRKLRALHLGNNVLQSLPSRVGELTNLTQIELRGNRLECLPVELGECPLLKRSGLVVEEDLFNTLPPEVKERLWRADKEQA
T1 sequence (Q7L1W4 1-858 partner): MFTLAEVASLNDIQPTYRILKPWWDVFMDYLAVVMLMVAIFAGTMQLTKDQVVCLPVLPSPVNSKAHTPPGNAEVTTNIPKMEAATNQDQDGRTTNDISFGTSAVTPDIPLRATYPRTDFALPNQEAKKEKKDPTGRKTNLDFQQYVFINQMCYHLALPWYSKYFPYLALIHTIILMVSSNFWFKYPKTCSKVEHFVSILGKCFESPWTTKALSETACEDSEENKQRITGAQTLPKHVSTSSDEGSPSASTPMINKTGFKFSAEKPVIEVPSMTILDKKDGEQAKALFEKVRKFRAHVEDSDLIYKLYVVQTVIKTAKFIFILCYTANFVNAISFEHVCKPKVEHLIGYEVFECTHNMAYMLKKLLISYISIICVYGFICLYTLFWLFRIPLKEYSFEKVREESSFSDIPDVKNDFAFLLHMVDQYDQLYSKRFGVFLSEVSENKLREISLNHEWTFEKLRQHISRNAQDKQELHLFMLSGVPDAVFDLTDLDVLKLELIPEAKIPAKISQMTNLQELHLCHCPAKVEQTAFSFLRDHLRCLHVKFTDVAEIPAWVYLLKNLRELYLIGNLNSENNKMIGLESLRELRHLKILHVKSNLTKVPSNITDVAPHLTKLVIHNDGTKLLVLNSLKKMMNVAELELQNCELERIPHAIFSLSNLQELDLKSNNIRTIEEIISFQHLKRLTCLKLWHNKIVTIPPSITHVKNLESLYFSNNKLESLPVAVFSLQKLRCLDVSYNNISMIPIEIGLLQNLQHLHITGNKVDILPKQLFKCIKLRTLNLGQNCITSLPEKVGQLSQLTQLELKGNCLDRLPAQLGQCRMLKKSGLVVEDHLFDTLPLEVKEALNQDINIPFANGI
Description: The ruptured-whole-cell configuration of the patch-clamp technique was used to measure the activation of VRAC conductance during hypotonic experimental conditions. Cell currents and cell capacitances were recorded using an EPC 10 amplifier [HEKA Elektronik, Lambrecht (Pfalz), Germany]. The membrane potential of the cells was held at -50 mV, and 400-ms pulses from -100 to +100 mV were applied in 20-mV increments. The I/V relationships were expressed as the mean current amplitudes measured at all potentials at 6–10 ms after the pulse onset.
The pipette solution contained (in mM) 140 NMDGCl, 10 HEPES (pH 7.4, HCl), 5 EGTA and 5 MgATP (290 mOsm.l^-1). The normal NMDGCl bath solution contained (in mM) 140 NMDGCl, 10 HEPES (pH 7.4, HCl), 1 CaCl2, 1 MgCl2, and ∼70 mannitol (340 mOsm.l^-1). This solution was designed to prevent the spontaneous activation of VRAC currents. Hypo-osmotic NMDGCl solution (270 mOsm.l^-1) was obtained by removing the mannitol from the NMDGCl bath solution.
Patch-clamp whole-cell recordings were performed in iso-osmotic bath solution (control condition), and the solution was rapidly exchanged to the hypo-osmotic solution. The hypotonic condition was maintained until the LRRC8/VRAC current had stabilized at its maximal value (3–6 min). The percent inhibition at each concentration of inhibitor was calculated at -100 mV holding potentials after at least 2 min of constant perfusion.
Concentration-response curves, IC50 and Hill slope were fitted and determined using the following equations:
Span=Top−Bottom y=Bottom+(Top−Bottom)/1+10^(LogIC50−x)^*Hill Slope

CFTR = conditions: cited from earlier work
ICl,swell = test system: ICl,swell; design: method as in Decher et al. (2001); conditions: ref Decher et al. (2001); cited from earlier work
[1] = test system: other chloride channels (CFTR, CaCC, ClC); design: method as in Decher et al. (2001); conditions: 10 μM; ref Decher et al. (2001); cited from earlier work
CaCC = test system: CaCC; design: method as in Namkung et al. (2013); conditions: ref Namkung et al. (2013); cited from earlier work
[2] = 100 mOsm.l^-1 hypotonic challenge
[3] = whole-cell, WT HEK-293, hypotonic solution 270 mOsm.l^-1, calculated at -100 mV
[4] = 100 mOsm.l^-1 hypotonic challenge, 10 µM

SMILES	Effect on hypotonic-activated Cl- currents at 20 μM (LRRC8/VRAC; whole-cell)	RVD inhibition at 10 μM (%) (HEK-293 WT cells; [4])	inhibition at 10 µM (HEK-293 WT cells; [2]) [%]	inhibition at 10 µM (LRRC8/VRAC; whole-cell) [%]	inhibition at 20 µM (LRRC8/VRAC; whole-cell) [%]	Hill coefficient (chloride conductance) (LRRC8/VRAC; whole-cell)	IC50 (LRRC8/VRAC; [3])	Effect on RVD at 30 μM (HEK-293 WT cells; [2])	further results
O=C(O)c1ccc(/C=C2\SC(=S)N(c3cccc(C(F)(F)F)c3)C2=O)cc1 [CFTRinh-172]	minor effect	–	–	–	–	–	–	–	RVD inhibition at 10 μM (%) (HEK-293 WT cells; [2]): No effect; Effect on RVD at up to 20 μM (HEK-293 WT cells; concentrations of up to 20 μM): no significant effect; Effect on RVD at doses lower than 30 μM (HEK-293 WT cells; lower doses than 30 μM): ineffective; Inhibition at 10 μM (%) of chloride conductance (LRRC8/VRAC; whole-cell): No effect; Effect on hypotonic-activated Cl- currents at up to 10 μM (LRRC8/VRAC; concentrations of up to 10 μM, whole-cell): almost no effect; Effect on VRAC current at up to 20 μM (LRRC8/VRAC; concentrations of up to 20 μM): no significant effect; IC50 (chloride conductance) (LRRC8/VRAC; [3]): No effect; IC50 (CFTR; ref Ma et al., 2002, read-out: IC50 (CFTR)): 0.3 µM
CCCCC1(C2CCCC2)Cc2cc(OCCCC(=O)O)c(Cl)c(Cl)c2C1=O (stereo not shown) [DCPIB, 4-(2-butyl-6,7-dichlor-2-cyclopentyl-indan-1-on-5-yl) oxybutyric acid]	full blockade	35.8 ± 3.1	36 ± 3	82.7 ± 3.2	> 90	2.9 ± 1.1	5 µM and 4.8 µM	–	Block of ICl,swell at 10 μM (ICl,swell): more than 80%; Effect on RVD at 20 μM (HEK-293 WT cells; 20 μM inhibitor, 100 mOsm.l^-1 hypotonic challenge): maximal effect; also recorded: completely impaired volume regulation; Effect on other chloride channels (CFTR, CaCC, ClC) [1]: without any effect
O=C(CNc1ccc2ccccc2c1)N/N=C/c1cc(Br)c(O)c(Br)c1O [GlyH-101]	–	–	–	46.6 ± 8.8	> 85	0.9 ± 0.4	10 µM and 9.5 µM	–	IC50 (CFTR; ref Muanprasat et al., 2004, read-out: IC50 for CFTR): ~5 µM
O=C(O)c1cccnc1Nc1cccc(C(F)(F)F)c1 [NFA, niflumic acid]	–	19.9 ± 7.2	20 ± 7	23 ± 4	–	0.8 ± 0.4	55 µM and 55.2 µM	maximally inhibited the RVD process	Inhibition at 10 μM (%) of chloride conductance (LRRC8/VRAC; whole-cell, 10 µM): 22.5 ± 4.0%; Effect on hypotonically activated Cl- current at 100 μM (LRRC8/VRAC; 100 μM inhibitor, whole-cell): maximal inhibitory effect
Cc1ccc(C2Nc3ccccc3-n3c(-c4ccccc4)c4c(=O)n(C)c(=O)n(C)c4c32)o1 (stereo not shown) [PPQ-102]	–	29.8 ± 5.9	30 ± 6	18.3 ± 11.3	–	2.2 ± 1.2	20 µM and 19.6 µM	fully inhibited RVD	Effect on ICl,swell at 1 μM (LRRC8/VRAC; 1 μM inhibitor, whole-cell): ineffective; inhibition at 30 µM (LRRC8/VRAC; 30 μM inhibitor, whole-cell): > 85%; IC50 (CFTR; ref Tradtrantip et al., 2009, read-out: IC50 (CFTR)): < 0.1 µM
CCc1c(C)nc(SCC(=O)Nc2nc(-c3ccc(OC)cc3)cs2)[nH]c1=O [T16Ainh-A01]	–	39.8 ± 9.6	40 ± 10	58.4 ± 2	–	1.5 ± 0.6	6 µM and 5.5 µM	maximal effect	inhibition at 3 µM (LRRC8/VRAC; 3 μM inhibitor, whole-cell, read-out: Inhibition of hypotonically activated Cl- current at 3 μM): 23 ± 5%; IC50 (CaCC): 1 µM

Source: paper PMC5449500, “Comparative Effects of Chloride Channel Inhibitors on LRRC8/VRAC-Mediated Chloride Conductance” (Frontiers in Pharmacology, 2017)
